Literature values in paper PMC7377376, “Drug targeting CYP2E1 for the treatment of early-stage alcoholic steatohepatitis” (PLoS ONE, 2020).

What was measured:
[1] = test system: CYP2E1; conditions: cited from earlier work
[2] = test system: cholesterol synthesis; design: method as in printed; conditions: high concentrations (> or =1.0 mmol/L); ref not given; cited from earlier work

SMILES: O=C(O)CCCCCCCCCCCn1ccnc1 [12 (imidazolyl) dodecanoic acids, 12-(imidazolyl)-dodecanoic acid]
- affinity to CYP2E1 compared to other ω imidazolyl alkanoic acids (in words) ([1]; ref Porubsky, Battaile et al. 2010): highest affinity

SMILES: C=CCSSCC=C [Diallyl disulfide (DADS), Diallyl disulfide]
- cholesterol synthesis (in words) [2]: abolished

SMILES: O=C(O)CCCCCn1ccnc1 [ω-imidazolylhexanoic acid]
- spin shift [1]: missing spin shift
